# Results as given in PubChem BioAssay AID1259407 (Chemical Carcinogenesis Research Information System (CCRIS), 2018).
# The source made the active and inactive calls. The rule behind the calls is not given here.
# System: CCRIS mutagenicity, Ames/micronucleus/aberration tests
# Assay: CCRIS mutagenicity studies
# [1] = Test System: AMES SALMONELLA TYPHIMURIUM, Strain/Indicator: TA100, Metabolic Activation: NONE, Method: STANDARD PLATE
# [2] = Test System: AMES SALMONELLA TYPHIMURIUM, Strain/Indicator: TA100, Metabolic Activation: RAT, LIVER, S-9, AROCLOR 1254, Method: STANDARD PLATE
smiles,measurement,setting,value
CCCCN(N)CCCC,mutagenic call,"Test System: AMES SALMONELLA TYPHIMURIUM, Strain/Indicator: TA100, Metabolic Activation: NONE, Method: PREINCUBATION (11 HR GROWTH PERIOD FOR BACTERIA)",active; positive
same,mutagenic call,[1],inactive; negative
same,mutagenic call,[2],inactive; negative
same,mutagenic call,"Test System: AMES SALMONELLA TYPHIMURIUM, Strain/Indicator: TA100, Metabolic Activation: RAT, LIVER, S-9, PCB, Method: PREINCUBATION (11 HR GROWTH PERIOD FOR BACTERIA)",inactive; negative
same,mutagenic call,"Test System: AMES SALMONELLA TYPHIMURIUM, Strain/Indicator: TA102, Metabolic Activation: NONE, Method: PREINCUBATION (5 HR GROWTH PERIOD FOR BACTERIA)",active; positive
same,mutagenic call,"Test System: AMES SALMONELLA TYPHIMURIUM, Strain/Indicator: TA102, Metabolic Activation: NONE, Method: PREINCUBATION (7 HR GROWTH PERIOD FOR BACTERIA)",inactive; negative
same,mutagenic call,"Test System: AMES SALMONELLA TYPHIMURIUM, Strain/Indicator: TA102, Metabolic Activation: NONE, Method: STANDARD PLATE",inactive; negative
same,mutagenic call,"Test System: AMES SALMONELLA TYPHIMURIUM, Strain/Indicator: TA102, Metabolic Activation: RAT, LIVER, S-9, AROCLOR 1254, Method: STANDARD PLATE",inactive; negative
same,mutagenic call,"Test System: AMES SALMONELLA TYPHIMURIUM, Strain/Indicator: TA102, Metabolic Activation: RAT, LIVER, S-9, PCB, Method: PREINCUBATION (5 OR 7 HR GROWTH PERIOD FOR BACTERIA)",inactive; negative
CC[C@H]1CN2CCc3cc(OC)c(OC)cc3[C@@H]2C[C@@H]1C[C@H]1NCCc2cc(OC)c(OC)cc21,mutagenic call,"Test System: AMES SALMONELLA TYPHIMURIUM, Strain/Indicator: TA98, Metabolic Activation: HAMSTER, LIVER, S-9, AROCLOR 1254 (10%), Method: PREINCUBATION",inactive; negative
same,mutagenic call,"Test System: AMES SALMONELLA TYPHIMURIUM, Strain/Indicator: TA98, Metabolic Activation: NONE, Method: PREINCUBATION",inactive; negative
same,mutagenic call,"Test System: AMES SALMONELLA TYPHIMURIUM, Strain/Indicator: TA98, Metabolic Activation: RAT, LIVER, S-9, AROCLOR 1254 (10%), Method: PREINCUBATION",inactive; negative
same,mutagenic call,"Test System: AMES SALMONELLA TYPHIMURIUM, Strain/Indicator: TA100, Metabolic Activation: HAMSTER, LIVER, S-9, AROCLOR 1254 (10%), Method: PREINCUBATION",inactive; negative
same,mutagenic call,"Test System: AMES SALMONELLA TYPHIMURIUM, Strain/Indicator: TA100, Metabolic Activation: NONE, Method: PREINCUBATION",inactive; negative
same,mutagenic call,"Test System: AMES SALMONELLA TYPHIMURIUM, Strain/Indicator: TA100, Metabolic Activation: RAT, LIVER, S-9, AROCLOR 1254 (10%), Method: PREINCUBATION",inactive; negative
same,mutagenic call,"Test System: AMES SALMONELLA TYPHIMURIUM, Strain/Indicator: TA1535, Metabolic Activation: HAMSTER, LIVER, S-9, AROCLOR 1254 (10%), Method: PREINCUBATION",inactive; negative
same,mutagenic call,"Test System: AMES SALMONELLA TYPHIMURIUM, Strain/Indicator: TA1535, Metabolic Activation: NONE, Method: PREINCUBATION",inactive; negative
same,mutagenic call,"Test System: AMES SALMONELLA TYPHIMURIUM, Strain/Indicator: TA1535, Metabolic Activation: RAT, LIVER, S-9, AROCLOR 1254 (10%), Method: PREINCUBATION",inactive; negative
same,mutagenic call,"Test System: AMES SALMONELLA TYPHIMURIUM, Strain/Indicator: TA1537, Metabolic Activation: HAMSTER, LIVER, S-9, AROCLOR 1254 (10%), Method: PREINCUBATION",inactive; negative
same,mutagenic call,"Test System: AMES SALMONELLA TYPHIMURIUM, Strain/Indicator: TA1537, Metabolic Activation: NONE, Method: PREINCUBATION",inactive; negative
same,mutagenic call,"Test System: AMES SALMONELLA TYPHIMURIUM, Strain/Indicator: TA1537, Metabolic Activation: RAT, LIVER, S-9, AROCLOR 1254 (10%), Method: PREINCUBATION",inactive; negative
ClC/C=C/CCl,mutagenic call,"Test System: AMES SALMONELLA TYPHIMURIUM, Strain/Indicator: TA98, Metabolic Activation: HAMSTER, LIVER, S-9, AROCLOR 1254 (10%), Method: STANDARD PLATE",active; positive
same,mutagenic call,"Test System: AMES SALMONELLA TYPHIMURIUM, Strain/Indicator: TA98, Metabolic Activation: NONE, Method: STANDARD PLATE",active; positive
same,mutagenic call,"Test System: AMES SALMONELLA TYPHIMURIUM, Strain/Indicator: TA98, Metabolic Activation: RAT, LIVER, S-9, AROCLOR 1254 (10%), Method: STANDARD PLATE",active; positive
same,mutagenic call,"Test System: AMES SALMONELLA TYPHIMURIUM, Strain/Indicator: TA100, Metabolic Activation: HAMSTER, LIVER, S-9, AROCLOR 1254 (10%), Method: STANDARD PLATE",active; positive
same,mutagenic call,[1],active; positive
same,mutagenic call,"Test System: AMES SALMONELLA TYPHIMURIUM, Strain/Indicator: TA100, Metabolic Activation: RAT, LIVER, S-9, AROCLOR 1254 (10%), Method: STANDARD PLATE",active; positive
same,mutagenic call,"Test System: MOUSE LYMPHOMA, Strain/Indicator: L5178Y (TK+/TK-), Metabolic Activation: NONE, Method: SUSPENSION/PLATE",active; positive. reevaluation of results: inconclusive
same,mutagenic call,"Test System: MOUSE LYMPHOMA, Strain/Indicator: L5178Y (TK+/TK-), Metabolic Activation: RAT, LIVER, S-9, AROCLOR 1254, Method: SUSPENSION/PLATE",active; positive. reevaluation of results: positive
CCCCOc1cc2c(c3ccc4ccccc4c13)CCC2=O,mutagenic call,[2],inactive; negative
O=S(=O)(O)c1ccc(-c2nnc(-c3ccccn3)nc2-c2ccc(S(=O)(=O)O)cc2)cc1,mutagenic call,"Test System: Mouse lymphoma, Strain/Indicator: L5178Y (tk+/tk-), Metabolic Activation: None, Method: Suspension/plate",inactive; negative
same,mutagenic call,"Test System: Mouse lymphoma, Strain/Indicator: L5178Y (tk+/tk-), Metabolic Activation: Rat, Liver, S-9, Aroclor 1254, Method: Suspension/plate",inactive; negative
